Experimental findings from patent publication US8367700B2, “Substituted 4-(1.2,3,4-tetrahydroisoquinolin-2-yl)-4-oxobutyric acid amide as KCNQ2/3 modulators” (Gruenenthal GmbH, priority 2008, dated 2013) are described below.

For test [1], the target named is T1, hKCNQ2/3 (Homo sapiens, UniProt O43525+O43526). The test can be described thus: Fluorescence assay using a voltage-sensitive dye (fluorimetry). The note with it: CHO-K1 cells expressing KCNQ2/3; for Emax at 1 µM / Emax at 10 µM: relative to retigabine = 100%; for Emax at 1 µM: read-out: Fluorimetry % Efficacy @ 1 μM (Retigabine = 100%); for Emax at 10 µM: read-out: Fluorimetry % Efficacy @ 10 μM (Retigabine = 100%). Further details: expressed in transfected cells; host or cells: CHO-K1. The class given is cell-based. The protocol: Pharmacological Experiments Fluorescence Assay Using a Voltage-Sensitive Dye
T1 sequence (O43526 whole entry): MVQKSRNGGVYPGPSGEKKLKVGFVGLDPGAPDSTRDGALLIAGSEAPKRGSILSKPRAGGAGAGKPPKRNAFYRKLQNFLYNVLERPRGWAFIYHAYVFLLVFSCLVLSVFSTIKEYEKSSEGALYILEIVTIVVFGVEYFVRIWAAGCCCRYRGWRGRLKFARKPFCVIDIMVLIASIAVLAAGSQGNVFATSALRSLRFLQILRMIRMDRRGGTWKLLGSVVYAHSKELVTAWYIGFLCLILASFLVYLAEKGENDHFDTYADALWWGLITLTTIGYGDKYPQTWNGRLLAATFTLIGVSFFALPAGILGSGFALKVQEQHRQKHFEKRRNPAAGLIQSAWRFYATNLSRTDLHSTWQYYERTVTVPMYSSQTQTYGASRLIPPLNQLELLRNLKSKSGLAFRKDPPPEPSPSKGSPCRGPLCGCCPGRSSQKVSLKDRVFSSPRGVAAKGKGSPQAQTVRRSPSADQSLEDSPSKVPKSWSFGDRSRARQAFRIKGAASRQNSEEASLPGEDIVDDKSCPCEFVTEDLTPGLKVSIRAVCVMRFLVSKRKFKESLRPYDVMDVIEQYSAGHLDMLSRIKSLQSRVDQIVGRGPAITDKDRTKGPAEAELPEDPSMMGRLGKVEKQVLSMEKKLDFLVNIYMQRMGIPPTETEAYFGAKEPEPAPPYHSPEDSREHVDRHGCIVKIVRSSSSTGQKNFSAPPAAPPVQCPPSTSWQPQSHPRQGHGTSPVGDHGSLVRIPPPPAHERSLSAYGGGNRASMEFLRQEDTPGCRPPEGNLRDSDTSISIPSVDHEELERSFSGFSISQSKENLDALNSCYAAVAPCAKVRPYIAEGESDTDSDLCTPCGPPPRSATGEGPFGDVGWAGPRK
T1 sequence (O43525 whole entry): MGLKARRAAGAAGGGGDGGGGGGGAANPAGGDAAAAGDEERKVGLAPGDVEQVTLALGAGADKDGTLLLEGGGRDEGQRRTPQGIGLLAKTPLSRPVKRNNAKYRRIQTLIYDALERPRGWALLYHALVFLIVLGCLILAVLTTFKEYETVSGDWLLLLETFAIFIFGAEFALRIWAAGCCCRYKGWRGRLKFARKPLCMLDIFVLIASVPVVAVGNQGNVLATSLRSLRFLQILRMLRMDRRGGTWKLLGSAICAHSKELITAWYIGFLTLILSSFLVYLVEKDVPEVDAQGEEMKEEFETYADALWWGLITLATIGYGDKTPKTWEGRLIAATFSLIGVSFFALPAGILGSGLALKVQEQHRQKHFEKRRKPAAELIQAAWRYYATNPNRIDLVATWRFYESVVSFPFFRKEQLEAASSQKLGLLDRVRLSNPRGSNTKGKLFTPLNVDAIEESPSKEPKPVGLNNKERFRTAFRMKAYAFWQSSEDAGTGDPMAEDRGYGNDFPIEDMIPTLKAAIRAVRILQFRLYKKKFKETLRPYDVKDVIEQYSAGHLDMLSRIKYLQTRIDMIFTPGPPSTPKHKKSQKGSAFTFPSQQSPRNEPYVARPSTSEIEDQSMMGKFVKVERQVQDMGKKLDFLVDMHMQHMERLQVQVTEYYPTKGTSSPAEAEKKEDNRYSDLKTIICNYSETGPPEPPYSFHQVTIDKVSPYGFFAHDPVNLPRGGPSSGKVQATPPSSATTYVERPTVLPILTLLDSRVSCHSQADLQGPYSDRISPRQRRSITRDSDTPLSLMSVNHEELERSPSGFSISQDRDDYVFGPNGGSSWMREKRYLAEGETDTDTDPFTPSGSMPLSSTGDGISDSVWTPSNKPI
Human CHO-K1 cells expressing KCNQ2/3 channels are cultivated adherently at 37° C., 5% CO2 and 95% humidity in cell culture bottles (e.g. 80 cm^2 TC flasks, Nunc) with DMEM-high glucose (Sigma Aldrich, D7777) including 10% FCS (PAN Biotech, e.g. 3302-P270521) or alternatively MEM Alpha Medium (1×, liquid, Invitrogen, #22571), 10% foetal calf serum (FCS) (Invitrogen, #10270-106, heat-inactivated) and the necessary selection antibiotics.
Before being sown out for the measurements, the cells are washed with a 1×DPBS buffer without Ca^2+/Mg^2+ (e.g. Invitrogen, #14190-094) and detached from the bottom of the culture vessel by means of Accutase (PAA Laboratories, #L11-007) (incubation with Accutase for 15 min at 37° C.). The cell count then present is determined using a CASY™ cell counter (TCC model, Scharfe System) in order subsequently to apply 20,000 to 30,000 cells/well/100 μl of the described nutrient medium, depending on density optimisation for the individual cell line, to 96-well measuring plates of the Corning™ CeIIBIND™ type (flat clear-bottom black polystyrene microplates, #3340).
Incubation is then carried out for one hour at room temperature, without gassing or adjusting the humidity, followed by incubation for 24 hours at 37° C., 5% CO2 and 95% humidity.
The voltage-sensitive fluorescent dye from the Membrane Potential Assay Kit (Red™ bulk format part R8123 for FLIPR, MDS Analytical Technologies™) is prepared by dissolving the contents of a vessel of Membrane Potential Assay Kit Red Component A in 200 ml of extracellular buffer (ES buffer, 120 mM NaCl, 1 mM KCl, 10 mM HEPES, 2 mM CaCl2, 2 mM MgCl2, 10 mM glucose; pH 7.4). After removal of the nutrient medium, the cells are washed with 200 μl of ES buffer, then covered with a layer of 100 μl of the dye solution prepared above and incubated for 45 min at room temperature with exclusion of light.
The fluorescence measurements are carried out with a BMG Labtech FLUOstar™ BMG Labtech NOVOstar™ or BMG Labtech POLARstar™ instrument (525 nm excitation, 560 nm emission, bottom-read mode). After incubation of the dye, 50 μl of the substances to be tested in the desired concentrations, or 50 μl of ES buffer for control purposes, are introduced into separate cavities of the measuring plate and incubated for 30 min at room temperature whilst being shielded from light. The fluorescence intensity of the dye is then measured for 5 min and the fluorescence value F1 of each well is thus determined at a given, constant time. 15 μl of a […] KCl solution ([…]) are then added to each well. The change in fluorescence is subsequently measured until all relevant measured values have been obtained (mainly 5-30 min). At a given time after KCl application, a fluorescence value F2 is determined, in this case at the time of the fluorescence peak.
For calculation, the fluorescence intensity F2 is compared with the fluorescence intensity F1, and the agonistic activity of the target compound on the potassium channel is determined therefrom. F2 and F1 are calculated as follows: […]
In order to determine whether a substance has an agonistic activity,
[formula] for example, can be compared with
[formula] of control cells.
[formula] is determined by adding to the reaction batch only the buffer solution instead of the substance to be tested, determining the value F1K of the fluorescence intensity, adding the potassium ions as described above and measuring a value F2K of the fluorescence intensity. Then F2K and F1K are calculated as follows: […]
A substance has an agonistic activity on the potassium channel if
[formula] is greater than
Independently of the comparison of
[formula] it is also possible to conclude that a target compound has an agonistic activity if an increase in
[formula] is to be observed as the dosage of the target compound increases. […]

The target of test [2] is T1, hKCNQ2/3. The test can be described thus: Voltage-clamp (patch-clamp) measurements on stably transfected hKCNQ2/3 CHO-K1 cell line. To be noted: 10 μM test substance at −40 mV, current increase normalised against retigabine (10 μM), read-out: Patch-clamp % Efficacy @ 10 μM (Retigabine = 100%). The class given is cell-based. Further details: expressed in transfected cells; host or cells: CHO-K1 (stably transfected). As to the method:
Voltage-Clamp Measurements
In order to confirm a KCNQ2/3 agonistic action of the substances electrophysiologically, patch-clamp measurements (Hamill O P, Marty A, Neher E, Sakmann B, Sigworth F J: Improved patch-clamp techniques for high-resolution current recording from cells and cell-free membrane patches, Pfluger's Arch. 1981 August; 391(2):85-100) were performed in voltage-clamp mode on a stably transfected hKCNQ2/3 CHO-K1 cell line. After formation of the gigaseal the cells were first clamped at a holding potential of −60 mV. Depolarising voltage jumps up to a potential of +20 mV were then applied (increment: 20 mV, duration: 1 second) in order to confirm the functional expression of KCNQ2/3-typical currents. The substances were tested at a potential of −40 mV. First of all the current increase induced by retigabine (10 μM) at −40 mV was recorded on each cell as a positive control. After completely washing out the retigabine effect (duration: 80 s) the test substance (10 μM) was applied. The current increase induced by the test substance was normalised against the retigabine effect and stated as the relative efficacy (see below).
Background: Patch clamp records ionic current or voltage across a cell membrane.

By EC50 is commonly meant the concentration that produces a half-maximal response. Read a high EC50 as a need for much substance. Turning to `CC1c2ccccc2CCN1C(=O)CCC(=O)NCc1cccc(C(F)(F)F)c1` (centres unmarked) [Example compound 2, 4-(1-Methyl-3,4-dihydro-1H-isoquinolin-2-yl)-4-oxo-N-[[3-(trifluoromethyl)phenyl]methyl]butyric acid amide], at hKCNQ2/3 [1], the EC50 worked out at 10400 nM. Besides, the Emax at 10 µM at hKCNQ2/3 [2] stood at 17%. Turning to `O=C(CCC(=O)N1CCc2ccccc2C1c1cccs1)NCc1cccc(C(F)(F)F)c1` (centres unmarked) [Example compound 3, 4-Oxo-4-(1-thien-2-yl-3,4-dihydroisoquinolin-2(1H)-yl)-N-(3-(trifluoromethyl)benzyl)butyric acid amide], at hKCNQ2/3 [1], the Emax at 1 µM was found to be 76%, the Emax at 10 µM was 134% and the EC50 was 1050 nM. Consider `O=C(CCC(=O)N1CCc2ccccc2C1c1ccncc1)NCc1cccc(C(F)(F)F)c1` (centres unmarked) [Example compound 4, 4-Oxo-4-[1-(4-pyridyl)-3,4-dihydro-1H-isoquinolin-2-yl]-N-[[3-(trifluoromethyl)phenyl]methyl]butyric acid amide], for which, on hKCNQ2/3 [1], the Emax at 1 µM was 11% and the Emax at 10 µM was 35%. In the case of `O=C(CCC(=O)N1CCc2ccc(F)cc2C1c1ccccc1)NCc1cccc(C(F)(F)F)c1` (centres unmarked) [Example compound 5, 4-(7-Fluoro-1-phenyl-3,4-dihydroisoquinolin-2(1H)-yl)-4-oxo-N-(3-(trifluoromethyl)benzyl)butyric acid amide], at hKCNQ2/3 [1], the Emax at 1 µM turned out to be 69% and the EC50 amounted to 83 nM. Take `O=C(CCC(=O)N1CCc2c(F)cccc2C1c1ccccc1)NCc1cccc(C(F)(F)F)c1` (centres unmarked) [Example compound 6, 4-(5-Fluoro-1-phenyl-3,4-dihydro-1H-isoquinolin-2-yl)-4-oxo-N-[[3-(trifluoromethyl)phenyl]methyl]butyric acid amide]: on hKCNQ2/3 [1], the Emax at 1 µM was 73% and the 50% effective concentration (EC50) is 75 nM. On to `O=C(CCC(=O)N1CCc2ccccc2C1c1ccccc1)NCc1ccccc1C(F)(F)F` (centres unmarked) [Example compound 7, 4-Oxo-4-(1-phenyl-3,4-dihydro-1H-isoquinolin-2-yl)-N-[[2-(trifluoromethyl)phenyl]methyl]butyric acid amide], for which, on hKCNQ2/3 [1], the Emax at 1 µM turned out to be 12%. Still for that read-out and setting: the result for `O=C(CCC(=O)N1CCc2ccccc2C1c1ccccc1)NCc1ccc(C(F)(F)F)cc1` (centres unmarked) [Example compound 8, 4-Oxo-4-(1-phenyl-3,4-dihydro-1H-isoquinolin-2-yl)-N-[[4-(trifluoromethyl)phenyl]methyl]butyric acid amide] reads 63%. Take `CC1CN(C(=O)CCC(=O)NCc2cccc(C(F)(F)F)c2)C(c2ccccc2)c2ccccc21` (centres unmarked) [Example compound 9, 4-(4-Methyl-1-phenyl-3,4-dihydro-1H-isoquinolin-2-yl)-4-oxo-N-[[3-(trifluoromethyl)phenyl]methyl]butyric acid amide]: at hKCNQ2/3 [1], the Emax at 1 µM was 51% and the EC50 worked out at 116 nM. For the molecule `CC1(C)CN(C(=O)CCC(=O)NCc2cccc(C(F)(F)F)c2)C(c2ccccc2)c2ccccc21` (centres unmarked) [Example compound 10, 4-(4,4-Dimethyl-1-phenyl-1,3-dihydroisoquinolin-2-yl)-4-oxo-N-[[3-(trifluoromethyl)phenyl]methyl]butyric acid amide], at hKCNQ2/3 [1], the Emax at 1 µM was 45% and a half-maximal effect (EC50) was put at 135 nM. In the case of `COc1ccc2c(c1)C(c1ccccc1)N(C(=O)CCC(=O)NCc1cccc(C(F)(F)F)c1)CC2` (centres unmarked) [Example compound 11, 4-(7-Methoxy-1-phenyl-3,4-dihydro-1H-isoquinolin-2-yl)-4-oxo-N-[[3-(trifluoromethyl)phenyl]methyl]butyric acid amide], on hKCNQ2/3 [1], the Emax at 1 µM is 30%. Still for that read-out and setting: the value for `COc1cccc2c1CCN(C(=O)CCC(=O)NCc1cccc(C(F)(F)F)c1)C2c1ccccc1` (centres unmarked) [Example compound 12, 4-(5-Methoxy-1-phenyl-3,4-dihydro-1H-isoquinolin-2-yl)-4-oxo-N-[[3-(trifluoromethyl)phenyl]methyl]butyric acid amide] was -7%; that for `CC1Cc2ccccc2C(c2ccccc2)N1C(=O)CCC(=O)NCc1cccc(C(F)(F)F)c1` (centres unmarked) [Example compound 13, 4-(3-Methyl-1-phenyl-3,4-dihydro-1H-isoquinolin-2-yl)-4-oxo-N-[[3-(trifluoromethyl)phenyl]methyl]butyric acid amide] was 29%. `Cc1ccccc1C1c2ccccc2CCN1C(=O)CCC(=O)NCc1cccc(C(F)(F)F)c1` (centres unmarked) [Example compound 67, 4-Oxo-4-(1-(2-tolyl)-3,4-dihydro-1H-isoquinolin-2-yl)-N-[[3-(trifluoromethyl)-phenyl]methyl]butyric acid amide]: on hKCNQ2/3 [1], the Emax at 1 µM was determined as 112% and the EC50 came to 215 nM. For `Cc1ccccc1C1c2ccccc2CCN1C(=O)CCC(=O)NCc1ccc(C(F)(F)F)cc1` (centres unmarked) [Example compound 68, 4-Oxo-4-(1-(2-tolyl)-3,4-dihydro-1H-isoquinolin-2-yl)-N-[[4-(trifluoromethyl)-phenyl]methyl]butyric acid amide], on hKCNQ2/3 [1], the Emax at 1 µM was determined as 56% and a half-maximal response (EC50) required 149 nM.

As for `Cc1ccccc1C1c2ccccc2CCN1C(=O)CCC(=O)NCc1ccccc1C(F)(F)F` (centres unmarked) [Example compound 69, 4-Oxo-4-(1-(2-tolyl)-3,4-dihydro-1H-isoquinolin-2-yl)-N-[[2-(trifluoromethyl)-phenyl]methyl]butyric acid amide], at hKCNQ2/3 [1], the Emax at 1 µM is 67% and the EC50 turned out to be 158 nM.
